Data on 19 compounds can be found in US10314823B2, “Substituted 1,2-dihydro-3H-pyrrolo[1,2-c]imidazol-3-one antibacterial compounds” (IDORSIA PHARMACEUTICALS LTD, priority 2015, dated 2019).

Values after ≈ are worked out from the molar mass of the structure shown.

What all share (experiment): Bacterial growth minimal inhibitory concentration (CLSI broth microdilution)
Common to all, as to format: cell-based

For assay [1], the system named is E. coli ATCC25922. Particulars: Escherichia coli, ATCC25922; quinolone-sensitive strain; cation-adjusted Mueller-Hinton Broth. How it is done: (§1) Minimal Inhibitory Concentrations (MICs; mg/L) were determined in cation-adjusted Mueller-Hinton Broth by a microdilution method following the description given in “Methods for Dilution Antimicrobial Susceptibility Tests for Bacteria that Grow Aerobically”, Approved standard, 7th ed., Clinical and Laboratory Standards Institute (CLSI) Document M7-A7, Wayne, Pa., USA (2006).
(§2) All Reference Example compounds were tested against several Gram-negative bacteria. K. pneumoniae A-651 is a multiply resistant strain (in particular quinolone-resistant), while E. coli ATCC25922 and P. aeruginosa ATCC27853 are quinolone-sensitive strains. The corresponding antibacterial test results are given in Table 1 hereafter (MICs in mg/L).

In assay [2] the test system is K. pneumoniae A-651. As to conditions: Klebsiella pneumoniae, A651; multiply resistant strain (in particular quinolone-resistant); cation-adjusted Mueller-Hinton Broth. How it is done: as §1, §2
The test system of assay [3] is P. aeruginosa ATCC27853. Particulars: Pseudomonas aeruginosa, ATCC27853; quinolone-sensitive strain; cation-adjusted Mueller-Hinton Broth. How it is done: as §1, §2

On to `C[C@@](CCN1Cc2cc(C#CC#C[C@@H]3C[C@H]3[C@H](O)CO)cn2C1=O)(C(=O)NO)S(C)(=O)=O` [Example 7, (2R)-4-(6-(((1R,2R)-2-((S)-1,2-dihydroxyethyl)cyclopropyl)buta-1,3-diyn-1-yl)-3-oxo-1H-pyrrolo[1,2-c]imidazol-2(3H)-yl)-N-hydroxy-2-methyl-2-(methylsulfonyl)butanamide], for which the MIC in assay [1] came out at 0.5 µg/mL (≈ 1.08 µM); in assay [2] it was 2 µg/mL (≈ 4.31 µM); in assay [3] it was 0.5 µg/mL (≈ 1.08 µM).
Take `C[C@@](CCN1Cc2cc(C#CC#CCOC(=O)N3CCC(O)CC3)cn2C1=O)(C(=O)NO)S(C)(=O)=O` [Example 8, (3R)-5-(2-(4-(hydroxyamino)-3-methyl-3-(methylsulfonyl)-4-oxobutyl)-3-oxo-2,3-dihydro-1H-pyrrolo[1,2-c]imidazol-6-yl)penta-2,4-diyn-1-yl 4-hydroxypiperidine-1-carboxylate]: the MIC amounted to 1 µg/mL (≈ 1.92 µM) in assay [1], 2 µg/mL (≈ 3.84 µM) in assay [2] and 2 µg/mL (≈ 3.84 µM) in assay [3].
`C[C@@](CCN1Cc2cc(C#CC#CCN3CCOC3=O)cn2C1=O)(C(=O)NO)S(C)(=O)=O` [Example 9, (2R)—N-hydroxy-2-methyl-2-(methylsulfonyl)-4-(3-oxo-6-(5-(2-oxooxazolidin-3-yl)penta-1,3-diyn-1-yl)-1H-pyrrolo[1,2-c]imidazol-2(3H)-yl)butanamide]: the results for the MIC in assay [1], in assay [2] and in assay [3] were 2 µg/mL (≈ 4.32 µM), 4 µg/mL (≈ 8.65 µM) and 8 µg/mL (≈ 17.3 µM), respectively.
Taken in the same sequence, the figures for `C[C@@](CCN1Cc2cc(C#Cc3ccc(COC(=O)N4CC(O)C4)cc3)cn2C1=O)(C(=O)NO)S(C)(=O)=O` [Example 10, (3R)-4-((2-(4-(hydroxyamino)-3-methyl-3-(methylsulfonyl)-4-oxobutyl)-3-oxo-2,3-dihydro-1H-pyrrolo[1,2-c]imidazol-6-yl)ethynyl)benzyl 3-hydroxyazetidine-1-carboxylate] were 0.25 µg/mL (≈ 0.459 µM), 0.25 µg/mL (≈ 0.459 µM) and 1 µg/mL (≈ 1.84 µM).
Consider `CN(CCO)C(=O)OCc1ccc(C#Cc2cc3n(c2)C(=O)N(CC[C@](C)(C(=O)NO)S(C)(=O)=O)C3)cc1` [Example 11, (3R)-4-((2-(4-(hydroxyamino)-3-methyl-3-(methylsulfonyl)-4-oxobutyl)-3-oxo-2,3-dihydro-1H-pyrrolo[1,2-c]imidazol-6-yl)ethynyl)benzyl (2-hydroxyethyl)(methyl)carbamate], for which the MIC in assay [1] came out at 0.5 µg/mL (≈ 0.915 µM); in assay [2], 0.5 µg/mL (≈ 0.915 µM); in assay [3], 2 µg/mL (≈ 3.66 µM).
Turning to `C[C@@](CCN1Cc2cc(C#Cc3ccc(CN4CCC(N)C(F)(F)C4)cc3)cn2C1=O)(C(=O)NO)S(C)(=O)=O` (stereo partly drawn) [Example 14, (2R)-4-(6-((4-((4-amino-3,3-difluoropiperidin-1-yl)methyl)phenyl)ethynyl)-3-oxo-1H-pyrrolo[1,2-c]imidazol-2(3H)-yl)-N-hydroxy-2-methyl-2-(methylsulfonyl)butanamide], the MIC was 0.5 µg/mL (≈ 0.887 µM) in assay [1], 2 µg/mL (≈ 3.55 µM) in assay [2] and 1 µg/mL (≈ 1.77 µM) in assay [3].
On the same counts, the results for `C[C@@](CCN1Cc2cc(C#Cc3ccc(C4(F)CNC4)cc3)cn2C1=O)(C(=O)NO)S(C)(=O)=O` [Example 15, (2R)-4-(6-((4-(3-fluoroazetidin-3-yl)phenyl)ethynyl)-3-oxo-1H-pyrrolo[1,2-c]imidazol-2(3H)-yl)-N-hydroxy-2-methyl-2-(methylsulfonyl)butanamide] are 0.5 µg/mL (≈ 1.02 µM), 2 µg/mL (≈ 4.09 µM) and 1 µg/mL (≈ 2.05 µM).
Taken in the same sequence, the figures for `C[C@@](CCN1Cc2cc(C#Cc3ccc(C4(F)CN(C5COC5)C4)cc3)cn2C1=O)(C(=O)NO)S(C)(=O)=O` [Example 16, (2R)-4-(6-((4-(3-fluoro-1-(oxetan-3-yl)azetidin-3-yl)phenyl)ethynyl)-3-oxo-1H-pyrrolo[1,2-c]imidazol-2(3H)-yl)-N-hydroxy-2-methyl-2-(methylsulfonyl)butanamide] were 0.25 µg/mL (≈ 0.459 µM), 0.5 µg/mL (≈ 0.918 µM) and 1 µg/mL (≈ 1.84 µM).
For the compound `CN1CCN(C(=O)OCc2ccc(C#Cc3cc4n(c3)C(=O)N(CC[C@](C)(C(=O)NO)S(C)(=O)=O)C4)cc2)CC1` [Example 17, (3R)-4-((2-(4-(hydroxyamino)-3-methyl-3-(methylsulfonyl)-4-oxobutyl)-3-oxo-2,3-dihydro-1H-pyrrolo[1,2-c]imidazol-6-yl)ethynyl)benzyl 4-methylpiperazine-1-carboxylate], the values for the MIC in assay [1], in assay [2] and in assay [3] were 0.25 µg/mL (≈ 0.437 µM), 0.5 µg/mL (≈ 0.875 µM) and 2 µg/mL (≈ 3.5 µM), respectively.
`C[C@@](CCN1Cc2cc(C#CC#CC3(F)CNC3)cn2C1=O)(C(=O)NO)S(C)(=O)=O` [Example 18, (2R)-4-(6-((3-fluoroazetidin-3-yl)buta-1,3-diyn-1-yl)-3-oxo-1H-pyrrolo[1,2-c]imidazol-2(3H)-yl)-N-hydroxy-2-methyl-2-(methylsulfonyl)butanamide]: the minimal inhibitory concentration (MIC) in assay [1] was determined as 2 µg/mL (≈ 4.58 µM); in assay [2], 4 µg/mL (≈ 9.16 µM); in assay [3] it was 2 µg/mL (≈ 4.58 µM).
Turning to `C[C@@](CCN1Cc2cc(C#CC#CC3(F)CN(C4COC4)C3)cn2C1=O)(C(=O)NO)S(C)(=O)=O` [Example 19, (2R)-4-(6-((3-fluoro-1-(oxetan-3-yl)azetidin-3-yl)buta-1,3-diyn-1-yl)-3-oxo-1H-pyrrolo[1,2-c]imidazol-2(3H)-yl)-N-hydroxy-2-methyl-2-(methylsulfonyl)butanamide], the results for the MIC in assay [1], in assay [2] and in assay [3] were 0.25 µg/mL (≈ 0.508 µM), 1 µg/mL (≈ 2.03 µM) and 2 µg/mL (≈ 4.06 µM), respectively.
Taken in the same sequence, the figures for `CN1CC(F)(c2ccc(C#Cc3cc4n(c3)C(=O)N(CC[C@](C)(C(=O)NO)S(C)(=O)=O)C4)cc2)C1` [Example 20, (2R)-4-(6-((4-(3-fluoro-1-methylazetidin-3-yl)phenyl)ethynyl)-3-oxo-1H-pyrrolo[1,2-c]imidazol-2(3H)-yl)-N-hydroxy-2-methyl-2-(methylsulfonyl)butanamide] were 0.125 µg/mL (≈ 0.249 µM), 0.25 µg/mL (≈ 0.497 µM) and 1 µg/mL (≈ 1.99 µM).
Take `CN(C)C1(C#CC#Cc2cc3n(c2)C(=O)N(CC[C@](C)(C(=O)NO)S(C)(=O)=O)C3)CC1` [Example 21, (2R)-4-(6-((1-(dimethylamino)cyclopropyl)buta-1,3-diyn-1-yl)-3-oxo-1H-pyrrolo[1,2-c]imidazol-2(3H)-yl)-N-hydroxy-2-methyl-2-(methylsulfonyl)butanamide]: the MIC in assay [1], in assay [2] and in assay [3] was 0.5 µg/mL (≈ 1.12 µM) each time.
`C[C@@](CCN1Cc2cc(C#CC#CC3(COC(=O)N4CC(O)C4)CC3)cn2C1=O)(C(=O)NO)S(C)(=O)=O` [Example 22, (3R)-(1-((2-(4-(hydroxyamino)-3-methyl-3-(methylsulfonyl)-4-oxobutyl)-3-oxo-2,3-dihydro-1H-pyrrolo[1,2-c]imidazol-6-yl)buta-1,3-diyn-1-yl)cyclopropyl)methyl 3-hydroxyazetidine-1-carboxylate]: the figures for the MIC in assay [1], in assay [2] and in assay [3] were 1 µg/mL (≈ 1.88 µM), 4 µg/mL (≈ 7.51 µM) and 4 µg/mL (≈ 7.51 µM), respectively.
On to `CN1CCN(C(=O)OCC2(C#CC#Cc3cc4n(c3)C(=O)N(CC[C@](C)(C(=O)NO)S(C)(=O)=O)C4)CC2)CC1` [Example 23, (3R)-(1-((2-(4-(hydroxyamino)-3-methyl-3-(methylsulfonyl)-4-oxobutyl)-3-oxo-2,3-dihydro-1H-pyrrolo[1,2-c]imidazol-6-yl)buta-1,3-diyn-1-yl)cyclopropyl)methyl 4-methylpiperazine-1-carboxylate], for which the values for the MIC in assay [1], in assay [2] and in assay [3] were 4 µg/mL (≈ 7.15 µM), 4 µg/mL (≈ 7.15 µM) and 8 µg/mL (≈ 14.3 µM), respectively.
With `C[C@@](CCN1Cc2cc(C#CC#CCOC(=O)N3CC(O)C3)cn2C1=O)(C(=O)NO)S(C)(=O)=O` [Example 24, (3R)-5-(2-(4-(hydroxyamino)-3-methyl-3-(methylsulfonyl)-4-oxobutyl)-3-oxo-2,3-dihydro-1H-pyrrolo[1,2-c]imidazol-6-yl)penta-2,4-diyn-1-yl 3-hydroxyazetidine-1-carboxylate], the results for the MIC in assay [1], in assay [2] and in assay [3] were 0.5 µg/mL (≈ 1.02 µM), 1 µg/mL (≈ 2.03 µM) and 1 µg/mL (≈ 2.03 µM), respectively.
Take `C[C@@](CCN1Cc2cc(C#Cc3ccc(OCCS(C)(=O)=O)cc3)cn2C1=O)(C(=O)NO)S(C)(=O)=O` [Example 25, (2R)—N-hydroxy-2-methyl-2-(methylsulfonyl)-4-(6-((4-(2-(methylsulfonyl)ethoxy)phenyl)ethynyl)-3-oxo-1H-pyrrolo[1,2-c]imidazol-2(3H)-yl)butanamide]: the MIC in assay [1] was found to be 0.125 µg/mL (≈ 0.233 µM); in assay [2] it was 0.5 µg/mL (≈ 0.93 µM); in assay [3] it was 1 µg/mL (≈ 1.86 µM).
As to `C[C@@](CCN1Cc2cc(C#Cc3ccc(CNC(=O)OC4CNC4)cc3)cn2C1=O)(C(=O)NO)S(C)(=O)=O` [Example 26, azetidin-3-yl (3R)-(4-((2-(4-(hydroxyamino)-3-methyl-3-(methylsulfonyl)-4-oxobutyl)-3-oxo-2,3-dihydro-1H-pyrrolo[1,2-c]imidazol-6-yl)ethynyl)benzyl)carbamate], the MIC in assay [1] stood at 8 µg/mL (≈ 14.7 µM); in assay [2], 8 µg/mL (≈ 14.7 µM); in assay [3] it was 4 µg/mL (≈ 7.36 µM).
`CN1CC(OC(=O)NCc2ccc(C#Cc3cc4n(c3)C(=O)N(CC[C@](C)(C(=O)NO)S(C)(=O)=O)C4)cc2)C1` [Example 27, 1-methylazetidin-3-yl (3R)-(4-((2-(4-(hydroxyamino)-3-methyl-3-(methylsulfonyl)-4-oxobutyl)-3-oxo-2,3-dihydro-1H-pyrrolo[1,2-c]imidazol-6-yl)ethynyl)benzyl)carbamate]: the MIC stood at 2 µg/mL (≈ 3.59 µM) in assay [1], 4 µg/mL (≈ 7.17 µM) in assay [2] and 8 µg/mL (≈ 14.3 µM) in assay [3].
